Holding throughout (format): cell-based
One data set has as its system HBeAg. Briefly: PHH HBV natural infection assay, HBeAg (alphalisa). In a few lines:
(§1)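 Primary human hepatocytes infected with HBV at 200 GE/cell plus 4% PEG8000 for 24 h, then sandwich-cultured 72 h. Compounds were added in two refreshes 72 h apart. HBsAg and HBeAg in supernatant measured by AlphaLISA.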
Background: Alpha assays give light when donor and acceptor beads are brought close together.

Another data set deals with HBsAg. Briefly: PHH HBV natural infection assay, HBsAg (alphalisa). The essentials:
as §1

The nature of data set [1]: PHH natural infection assay, cytotoxicity (Cell Counting Kit-8). As to conditions: human, HBV-infected primary human hepatocytes, CCK8, end of treatment. The essentials:
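HBV-infected at 200 GE/cell with 4% PEG8000 for 24 h, then sandwich-cultured 72 h in 1% DMSO and 0.25 mg/mL matrix gel. Compound added twice at 72-h intervals; supernatant HBsAg and HBeAg read by AlphaLISA, HBV DNA by quantitative fluorescence PCR kit. Cytotoxicity by CCK-8.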
In general terms: Tetrazolium dyes change colour on reduction, which living cells bring about.

Where [2] appears, read: Hepatitis B virus, Hepatocyte, 72 h, read-out: HbeAg IC50, HBV-infected primary human hepatocytes, supernatant, compound medium refreshed two times with 72-hour interval.
Setting [3] is: Hepatitis B virus, Hepatocyte, 72 h, read-out: HBsAg IC50, HBV-infected primary human hepatocytes, supernatant, compound medium refreshed two times with 72-hour interval.

Read-outs that look alike come from different tables or passages of the source.

As for `O=C(NC1CC2(C1)CC(c1nc3cc(Cl)ccc3o1)C2)c1ccc(S2(=O)=NCCCC2)o1` (stereo not drawn) [Example 62, N-[6-(5-chloro-1,3-benzoxazol-2-yl)spiro[3.3]heptan-2-yl]-5-(1-oxo-1lambda6-thia-2-azacyclohexen-1-yl)furan-2-carboxamide], the concentration for half-maximal inhibition (IC50) was determined as 4850 nM in the data set with HBeAg (setting [2]) and 5010 nM in the data set with HBsAg (setting [3]). The half-maximal cytotoxic concentration (CC50) at 144 h in data set [1] was > 100000 nM.
The matching figures for `N#Cc1ccc(C(=O)NC2CC3(C2)CC(c2nc4cc(Cl)ccc4o2)C3)o1` (stereo not drawn) [Example 2, N-[6-(5-chloro-1,3-benzoxazol-2-yl)spiro[3.3]heptan-2-yl]-5-cyano-furan-2-carboxamide]: 4060 nM, 5860 nM and 61600 nM.
With `O=C(NC1CC2(C1)CC(c1nc3cc(Cl)ccc3o1)C2)c1ccc(S(=O)(=O)C2CC2)o1` (stereo not drawn) [Example 17, N-[6-(5-chloro-1,3-benzoxazol-2-yl)spiro[3.3]heptan-2-yl]-5-cyclopropylsulfonyl-furan-2-carboxamide], the concentration for half-maximal inhibition (IC50) was determined as 177 nM in the data set on HBeAg (setting [2]) and 275 nM in the data set on HBsAg (setting [3]). This compound also came in with a CC50 at 144 h in data set [1] of 89900 nM.
In the same order, the values of `N=S(=O)(Cc1ccc(C(=O)NC2CC3(C2)CC(c2nc4cc(Cl)ccc4o2)C3)o1)C1CC1` (stereo not drawn) [Example 60, N-[6-(5-chloro-1,3-benzoxazol-2-yl)spiro[3.3]heptan-2-yl]-5-[(cyclopropylsulfonimidoyl)methyl]furan-2-carboxamide] are 1910 nM, 1960 nM and > 100000 nM.
As for `N=S(=O)(c1ccc(C(=O)NC2CC3(C2)CC(c2nc4cc(Cl)cnc4o2)C3)o1)C1CC1` (stereo not drawn) [Example 64, N-[6-(6-chlorooxazolo[5,4-b]pyridin-2-yl)spiro[3.3]heptan-2-yl]-5-(cyclopropylsulfonimidoyl)furan-2-carboxamide], the IC50 with HBeAg (setting [2]) came out at 2330 nM; in the data set on HBsAg (setting [3]), 2930 nM. Besides, the cytotoxic concentration (CC50) at 144 h in data set [1] was > 100000 nM.
`CC(C)(C)S(=O)(=O)c1ccc(C(=O)NC2CC3(C2)CC(c2nc4cc(Cl)ccc4o2)C3)o1` (stereo not drawn) [Example 39, 5-tert-butylsulfonyl-N-[6-(5-chloro-1,3-benzoxazol-2-yl)spiro[3.3]heptan-2-yl]furan-2-carboxamide]: the values for the IC50 with HBeAg (setting [2]) and with HBsAg (setting [3]) were 603 nM and 960 nM, respectively. The CC50 at 144 h in data set [1] is > 10000 nM.
Take `CNS(=O)(=O)c1ccc(C(=O)NC2CC3(C2)CC(c2nc4cc(Cl)ccc4o2)C3)o1` (stereo not drawn) [Example 88, N-[6-(5-chloro-1,3-benzoxazol-2-yl)spiro[3.3]heptan-2-yl]-5-(methylsulfamoyl)furan-2-carboxamide]: the IC50 with HBeAg (setting [2]) is 687 nM; with HBsAg (setting [3]), 1000 nM. The 50% cytotoxic concentration (CC50) at 144 h in data set [1] was > 10000 nM.
In the case of `O=C(NC1CC2(C1)CC(c1nc3cc(Cl)ccc3o1)C2)c1ccc([S+]([O-])CC2CC2)o1` (single isomer, unassigned) [Example 19-a, N-[6-(5-chloro-1,3-benzoxazol-2-yl)spiro[3.3]heptan-2-yl]-5-(cyclopropylmethylsulfinyl)furan-2-carboxamide], the IC50 amounted to 67 nM in the data set with HBeAg (read-out: HbeAg IC50, HBV-infected primary human hepatocytes, supernatant, compound medium refreshed two times with 72-hour interval) and 88 nM with HBsAg (read-out: HBsAg IC50, HBV-infected primary human hepatocytes, supernatant, compound medium refreshed two times with 72-hour interval). The CC50 at 144 h in data set [1] was > 10000 nM.
Turning to `CCCC(=O)NS(=O)(=O)c1ccc(C(=O)N[C@H]2CC3(C2)C[C@H](c2nc4cc(Cl)ccc4o2)C3)o1` (stereo partly drawn) [Example 69], the IC50 was 223 nM with HBeAg (setting [2]) and 329 nM in the data set with HBsAg (setting [3]). Further, in data set [1], the CC50 at 144 h was > 100000 nM.
As to `COCc1ccc(C(=O)NC2CC3(C2)CC(c2nc4cc(Cl)ccc4o2)C3)o1` (stereo not drawn) [Example 9, N-[6-(5-chloro-1,3-benzoxazol-2-yl)spiro[3.3]heptan-2-yl]-5-(methoxymethyl)furan-2-carboxamide], the IC50 was 1010 nM in the data set on HBeAg (setting [2]) and 1580 nM in the data set on HBsAg (setting [3]). The CC50 at 144 h in data set [1] was 91000 nM.
With `O=C(NC1CC2(C1)CC(c1nc3ccc(F)cc3o1)C2)c1ccc(C(F)(F)F)o1` (stereo not drawn) [Example 47, N-[6-(6-fluoro-1,3-benzoxazol-2-yl)spiro[3.3]heptan-2-yl]-5-(trifluoromethyl)furan-2-carboxamide], the 50% inhibitory concentration (IC50) in the data set on HBeAg (setting [2]) was found to be 10600 nM; with HBsAg (setting [3]) it was 9590 nM. The CC50 at 144 h in data set [1] is > 100000 nM.

As a reminder, the IC50 is the concentration that inhibits the measured activity by half. For orientation: CC50 means the concentration that lowers cell viability or growth by half. A lower CC50 goes with harm at low concentration.

(Values after patent US20230286969A1, “AROMATIC SPIRO RING AMIDE DERIVATIVES FOR THE TREATMENT AND PROPHYLAXIS OF HEPATITIS B VIRUS INFECTION” (Hoffmann-La Roche Inc., priority 2020, published 2023).)
